Reference: article PMC6895180 (Nature Communications, 2019)
Values joined by “and” are separate entries in the source; they are usually repeats but may differ in a detail not shown here. Equal values may be shown once. Read-outs that look alike come from different tables or passages of the source. Marks after values point to notes of the source that are not given here.

What was measured:
[1] = test system: T. brucei Squib 427; assay: microbe, parasite or virus in culture; type: cell-based, Trypanosoma brucei brucei
Procedure: (§1) Drug susceptibility tests with Lister 427WT, TbAT1-KO[48], B48[26] and ISMR1[27] were performed using an assay based on the viability indicator dye resazurin in 96-well plates, each well containing 2 × 10^4 cells. The plates were incubated for 48 h with a doubling dilution series of the test compounds in HMI-9/fetal bovine serum at 37 °C/5% CO2 (23 dilutions starting at 100 µM, except for the pentamidine control (50 µM)), after which resazurin (20 µL of 125 µg mL^−1 resazurin sodium salt solution was added to each well (containing 200 µL of cells and test compound)) was added to each well and the plates incubated for another 24 h. Fluorescence was determined using a FLUOstar Optima (BMG Labtech, Durham, NC) and the results fitted to a sigmoid curve with variable slope using Prism 5.0 or Prism 7.04 (GraphPad, San Diego, CA).
(§2) Susceptibility assays with T. brucei Squib 427[49] or T. b. rhodesiense STIB-900[50] were performed under similar conditions as above, but using 10 concentrations of a 4-fold compound dilution series starting at 64 µM. Trypanosoma brucei Squib 427 was seeded at 1.5 × 10^4 parasites/well and T. b. rhodesiense at 4 × 10^3 parasites per well, followed by the addition of resazurin (final concentration of 10 µg mL^−1) after 24 h (T. brucei) or 6 h (T. b. rhodesiense).

[2] = test system: T. b. rhodesiense STIB-900; assay: microbe, parasite or virus in culture; type: cell-based, Trypanosoma brucei rhodesiense
Procedure: as §1, §2

[3] = Cytotoxicity on MRC-5 fibroblasts (resazurin); type: cell-based, human; details: human, MRC-5SV2 human embryonic lung fibroblasts, source data; read-out: MRC-5 EC50, single measurements
Procedure: (§3) Cytotoxicity assays were performed on MRC-5SV2 (Sigma-Aldrich/ECACC, catalogue number 84100401) human embryonic lung fibroblasts, which were cultured in minimum essential medium with Earle’s salt medium, supplemented with L-glutamine, NaHCO3 and 5% inactivated foetal calf serum. All cultures and assays were conducted at 37 °C with 5% CO2. Ten microliters of the aqueous compound dilutions were added to 190 µL of MRC-5SV2 (3 × 10^4 cells mL^−1). Cell growth was compared to untreated control wells (100% cell growth) and medium control wells (0% cell growth). After a 3-day incubation, cell viability was assessed fluorimetrically after the addition of 50 μL resazurin per well (final concentration of 10 µg mL^−1). After 4 h at 37 °C, fluorescence was measured (λex 550 nm, λem 590 nm). The results were expressed as percentage reduction in cell growth/viability compared to control wells and an EC50 was determined.

[4] = test system: MRC-5SV2 human embryonic lung fibroblasts; assay: Cytotoxicity on MRC-5 fibroblasts (resazurin); type: cell-based; details: source data; read-out: MRC-5 EC50, single measurements
Procedure: as §3

[5] = test system: T. b. brucei Lister 427WT; assay: Drug susceptibility test (resazurin), Lister 427WT; type: cell-based, Trypanosoma brucei brucei
Method in brief: (§4)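 Trypanosomes (2 × 10^4 cells/well) exposed 48 h at 37 °C/5% CO2 in HMI-9/FBS to 23-step doubling dilutions from 100 µM, then resazurin added for a further 24 h. Fluorescence fitted to a variable-slope sigmoid curve.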

[6] = test system: ISMR1: isometamidium-resistant T. brucei cell line; assay: microbe, parasite or virus in culture; type: cell-based, Trypanosoma brucei brucei
Method in brief: as §4

[7] = test system: TbAT1-KO: T. brucei cell line lacking the TbAT1(P2) transporter gene; assay: microbe, parasite or virus in culture; type: cell-based, Trypanosoma brucei brucei
Method in brief: as §4

[8] = test system: B48: pentamidine, diminazene and melaminophenyl arsenical resistant T. brucei line; assay: microbe, parasite or virus in culture; type: cell-based, Trypanosoma brucei brucei
[9] = target: T1, P2 transporter (TbAT1) (Trypanosoma brucei brucei, UniProt Q9Y0I0); assay: cell-based
Procedure: Non-specific association of radiolabel with the cell pellet was determined using an identical incubation in the presence of saturating (1 mM) unlabelled adenosine.

[10] = test system: Lister 427WT T. b. brucei; assay: Adenosine deaminase susceptibility (drug sensitivity with/without 2 µM deoxycoformycin); type: cell-based, Trypanosoma brucei brucei; details: Trypanosoma brucei, Lister 427WT, mean ± SEM, n=3
Procedure: as §1, with “CA). […]” for “CA).”
Adenosine deaminase susceptibility
in the presence or absence of 2 µM 2’-deoxycoformycin. […]

[11] = test system: T. brucei BSF s427 wildtype cells; assay: Growth assays of T. brucei (trypanocidal/trypanostatic effect); type: cell-based, Trypanosoma brucei; details: experiment 1
Procedure: Growth assays of T. brucei
To test the effect of the novel adenosine analogues on the growth of T. brucei BSF, s427 wildtype cells were seeded at 1×10^5 cells mL-1 in 5 mL of HMI-9 medium with 10% FBS and treated with compounds […]
cells were also incubated in drug-free medium under the same conditions. 2 μM of 2’-deoxycoformycin were added to all cultures to avoid any potential effect of serum adenosine deaminase on the activity of test compounds and cordycepin.1
Cells were manually counted in Neubauer chambers at 0, 2, 4, 6, 8, 12, 24, 36 and 48 h after addition of […]
the drugs. […]
After 6 and 12 h after addition of drugs, approximately 2×10^6 cells were harvested from each group and applied to glass slides pre-treated with poly-L-lysine, left to settle for 5 min and fixed with 4% formaldehyde for 4 min. The formaldehyde was neutralised by addition of 100 mM glycine (20 min).
Cells were washed once with PBS and blocked for 1 h with 1% BSA/0.2% Tween-20 in PBS. Cells were […]

[12] = target: P1 transporter; design: method as in PMID 10570043; details: ref [29]; cited from earlier work
[13] = target: T1, P2 transporter (TbAT1); design: method as in PMID 24283924; details: ref [18]; cited from earlier work
[14] = resistance factor vs Lister 427WT

T1 sequence (Q9Y0I0 entry or part of it): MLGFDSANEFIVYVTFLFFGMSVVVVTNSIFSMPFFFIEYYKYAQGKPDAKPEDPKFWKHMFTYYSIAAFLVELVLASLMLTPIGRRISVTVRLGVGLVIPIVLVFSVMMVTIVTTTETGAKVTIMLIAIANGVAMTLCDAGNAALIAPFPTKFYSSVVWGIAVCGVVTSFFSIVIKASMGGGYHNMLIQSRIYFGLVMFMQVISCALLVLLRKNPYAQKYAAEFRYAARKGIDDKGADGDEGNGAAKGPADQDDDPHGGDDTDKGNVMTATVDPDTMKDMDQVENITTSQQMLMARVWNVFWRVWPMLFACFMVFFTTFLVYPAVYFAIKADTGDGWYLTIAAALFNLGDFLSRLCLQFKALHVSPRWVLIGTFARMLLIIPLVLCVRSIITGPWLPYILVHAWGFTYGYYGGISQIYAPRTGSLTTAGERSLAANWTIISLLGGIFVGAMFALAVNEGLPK

Nc1ncnc2c1c(Br)cn2[C@H]1C[C@H](O)[C@@H](CO)O1 [Compound 12, 7-Br-2′-deoxy-TUB]
EC50 ([1]; Trypanosoma brucei, Alamar blue cell viability assay, mean and SEM, read-out: T. b. brucei EC50): 460 ± 80 nM
EC50 ([1]; Trypanosoma brucei, source data, read-out: T. brucei brucei EC50, Average): 460 nM
EC50 ([1]; Trypanosoma brucei, source data, read-out: T. brucei brucei EC50, single measurements): 382 nM
SI (MRC/T.b. brucei) ([1]; selectivity index): 13
EC50 ([1]; source data, read-out: T. brucei brucei EC50, single measurements): 533 nM
EC50 ([2]; Trypanosoma brucei, RHODESIENSE, Alamar blue cell viability assay, mean and SEM, read-out: T. b. rhodesiense EC50): 120 ± 10 nM
EC50 ([2]; Trypanosoma brucei, RHODESIENSE, source data, read-out: T. brucei rhodesiense EC50, Average): 120 nM
EC50 ([2]; Trypanosoma brucei, RHODESIENSE, source data, read-out: T. brucei rhodesiense EC50, single measurements): 116 nM
SI (MRC/T.b. rhodesiense) ([2]; selectivity index): 50
EC50 ([2]; source data, read-out: T. brucei rhodesiense EC50, single measurements): 126 nM
EC50 at 3 day [3]: 6830 nM
EC50 [4]: 5370 nM
EC50 ([5]; Trypanosoma brucei, mean and SEM, n = 3, read-out: Lister 427 EC50): 310 ± 63 nM
EC50 ([5]; Trypanosoma brucei, source data, read-out: s427 EC50, AVG): 313 nM
EC50 ([5]; Trypanosoma brucei, source data, read-out: s427 EC50, single determinations): 376 nM
EC50 ([5]; source data, read-out: s427 EC50, single determinations): 251 nM and 355 nM
EC50 ([6]; Trypanosoma brucei, mean and SEM, n = 3, read-out: ISMR1 EC50): 920 ± 120 nM
EC50 ([6]; Trypanosoma brucei, source data, read-out: ISMR1 EC50, AVG): 919 nM
EC50 ([6]; Trypanosoma brucei, source data, read-out: ISMR1 EC50, single determinations): 1150 nM
RF (ISMR1) [6, 14]: 2.93**
EC50 ([6]; source data, read-out: ISMR1 EC50, single determinations): 731 nM and 876 nM
EC50 ([7]; Trypanosoma brucei, read-out: TbAT1-KO EC50, AVG, source data): 758 nM
EC50 ([7]; Trypanosoma brucei, read-out: TbAT1-KO EC50, mean and SEM, n = 3): 760 ± 180 nM
EC50 ([7]; Trypanosoma brucei, read-out: TbAT1-KO EC50, single determinations, source data): 940 nM
EC50 ([7]; read-out: TbAT1-KO EC50, single determinations, source data): 576 nM and 850 nM
RF (TbAT1-KO) ([7]; resistance factor: ratio of EC50 of resistant and Lister 427WT): 2.37*
EC50 ([8]; Trypanosoma brucei, mean and SEM, n = 3, read-out: B48 EC50): 830 ± 160 nM
EC50 ([8]; Trypanosoma brucei, source data, read-out: B48 EC50, AVG): 827 nM
EC50 ([8]; Trypanosoma brucei, source data, read-out: B48 EC50, single determinations): 990 nM
RF (B48) [8, 14]: 2.64**
EC50 ([8]; source data, read-out: B48 EC50, single determinations): 664 nM and 844 nM

Nc1ncnc2c1ncn2[C@@H]1O[C@H](CO)C[C@H]1O [Compound 3, cordycepin, reference compound]
P2 Ki, fold lower than the Km value for adenosine [9]: roughly 3 fold
energy advantage at P2 versus adenosine [9]: roughly 3 kJ mol^−1
P2 transporter ΔG^0 ([9]; Gibbs free energy from −RT ln(Ki)): -9.2 kcal/mol
P2 transporter δ(ΔG^0) ([9]; in comparison to adenosine): -0.645 kcal/mol
EC50 ([10]; absence of deoxycoformycin, read-out: T. b. brucei EC50, -Dcf): 440 ± 110 nM
EC50 ([10]; presence of 2 µM deoxycoformycin, read-out: T. b. brucei EC50, +Dcf): 3.6 ± 1 nM
AVG of cells/mL ([11]; 2xEC50, 2 h): 122500 cells/mL
Cells/mL ([11]; 2xEC50, 2 h): 130000 Cells/mL and 115000 Cells/mL
Counts ([11]; 2xEC50, 2 h): 52 and 46
AVG of cells/mL ([11]; 2xEC50, 4 h): 122500 cells/mL
Cells/mL ([11]; 2xEC50, 4 h): 110000 Cells/mL and 135000 Cells/mL
Counts ([11]; 2xEC50, 4 h): 44 and 54
AVG of cells/mL ([11]; 2xEC50, 6 h): 161250 cells/mL
Cells/mL ([11]; 2xEC50, 6 h): 150000 Cells/mL and 172500 Cells/mL
Counts ([11]; 2xEC50, 6 h): 60 and 69
AVG of cells/mL ([11]; 2xEC50, 8 h): 187500 cells/mL
Cells/mL ([11]; 2xEC50, 8 h): 207500 Cells/mL and 167500 Cells/mL
Counts ([11]; 2xEC50, 8 h): 83 and 67
AVG of cells/mL ([11]; 2xEC50, 12 h): 195000 cells/mL
Counts ([11]; 2xEC50, 12 h): 75 and 81
AVG of cells/mL ([11]; 2xEC50, 24 h): 106250 cells/mL
Cells/mL ([11]; 2xEC50, 24 h): 82500 Cells/mL and 130000 Cells/mL
Counts ([11]; 2xEC50, 24 h): 33 and 52
AVG of cells/mL ([11]; 2xEC50, 36 h): 81250 cells/mL
Counts ([11]; 2xEC50, 36 h): 29 and 36
AVG of cells/mL ([11]; 2xEC50, 48 h): 105000 cells/mL
Cells/mL ([11]; 2xEC50, 48 h): 105000 Cells/mL
Counts ([11]; 2xEC50, 48 h): 42
AVG of cells/mL ([11]; 5xEC50, 2 h): 145000 cells/mL
Cells/mL ([11]; 5xEC50, 2 h): 177500 Cells/mL and 112500 Cells/mL
Counts ([11]; 5xEC50, 2 h): 71 and 45
AVG of cells/mL ([11]; 5xEC50, 4 h): 118750 cells/mL
Cells/mL ([11]; 5xEC50, 4 h): 107500 Cells/mL and 130000 Cells/mL
Counts ([11]; 5xEC50, 4 h): 43 and 52
AVG of cells/mL ([11]; 5xEC50, 6 h): 130000 cells/mL
Cells/mL ([11]; 5xEC50, 6 h): 130000 Cells/mL
Counts ([11]; 5xEC50, 6 h): 52
AVG of cells/mL ([11]; 5xEC50, 8 h): 172500 cells/mL
Cells/mL ([11]; 5xEC50, 8 h): 177500 Cells/mL and 167500 Cells/mL
Counts ([11]; 5xEC50, 8 h): 71 and 67
AVG of cells/mL ([11]; 5xEC50, 12 h): 156250 cells/mL
Counts ([11]; 5xEC50, 12 h): 60 and 65
AVG of cells/mL ([11]; 5xEC50, 24 h): 33750 cells/mL
Cells/mL ([11]; 5xEC50, 24 h): 35000 Cells/mL and 32500 Cells/mL
Counts ([11]; 5xEC50, 24 h): 14 and 13
AVG of cells/mL ([11]; 5xEC50, 36 h): 31250 cells/mL
Cells/mL ([11]; 5xEC50, 36 h): 32500 Cells/mL and 30000 Cells/mL
Counts ([11]; 5xEC50, 36 h): 13 and 12
AVG of cells/mL ([11]; 5xEC50, 48 h): 15000 cells/mL
Cells/mL ([11]; 5xEC50, 48 h): 15000 Cells/mL
Counts ([11]; 5xEC50, 48 h): 6
Ki [12]: 210000 ± 48000 nM
Ki [13]: 180 ± 20 nM
